Results from US20250144066A1, “Prevention and Treatment of Parasitic Infections” (priority 2017, published 2025).
Converted amounts (≈) assume the structure as drawn.

Assays:
[1] = Neutral Red toxicity in Huh7 cells, 24 h pre-incubation (Zika-138); conditions: human
in vitro = conditions: African green monkey
[2] = NR toxicity in HG23 cells (17-14); type: cell-based; conditions: human, HG23 cells, NR (Tox)
Source text: (§1) Secondary testing was done with human norovirus.

[3] = Neutral Red toxicity in Vero 76 cells, secondary (Zika-094); conditions: monkey
Powassan virus LB = assay: microbe, parasite or virus in culture; type: cell-based; conditions: for EC50: Powassan virus, BHK
[4] = RNA Hybridization toxicity in HG23 cells (16-21); type: cell-based; conditions: human, HG23 cells
Source text: as §1

**Q.** Which CC50 [1] does the source give for `COc1c(C)c2c(c(O)c1C/C=C(\C)CCC(=O)O)C(=O)OC2` [EP1601, 6-(4-hydroxy-6-methoxy-7-methyl-3-oxo-1,3-dihydroisobenzofuran-5-yl)-4-methyl-hex-4-enoic acid] here?
**A.** 1.4 µg/mL (≈ 4.37 µM)

**Q.** What about the CC50 (in vitro) of the same molecule?
**A.** > 100 µg/mL

**Q.** And the CC50 [2]?
**A.** 64 µM

**Q.** And the CC50 [3]?
**A.** 2.3 µg/mL (≈ 7.18 µM)

**Q.** What about the “activity against Powassan” value (Powassan virus LB) of the same molecule?
**A.** active

**Q.** What about the EC50 (Powassan virus LB; Neutral Red (Cytopathic effect)) of the same molecule?
**A.** 0.36 µg/mL (≈ 1.12 µM)

**Q.** What about the EC50 (Powassan virus LB; Visual (Cytopathic effect)) of the same molecule?
**A.** 0.32 µg/mL (≈ 0.999 µM)

**Q.** What about the CC50 [4] of the same molecule?
**A.** > 100 µM
